Test results taken from article PMC11266212, “Effect of Clarithromycin, a Strong CYP3A and P-glycoprotein Inhibitor, on the Pharmacokinetics of Edoxaban in Healthy Volunteers and the Evaluation of the Drug Interaction with Other Oral Factor Xa Inhibitors by a Microdose Cocktail Approach” (Cardiovascular Drugs and Therapy, 2023).
Where two headings read alike, the source gives them in different places.

Assays:
[1] = cited from earlier work
clinical = settings: for GMR of dose-normalized AUC0-∞, microdose vs therapeutic dose: edoxaban 50 μg vs 60 mg; for AUC: AUC0-∝
Description: (§1) The study was an open-label, two-period, one-sequence DDI trial in healthy volunteers to assess the impact of clarithromycin on the pharmacokinetics of 60 mg edoxaban, given as a tablet, and the effect of clarithromycin on apixaban (25 μg), edoxaban (50 μg), and rivaroxaban (25 μg) administered as an oral microdose cocktail. Concurrently, the effect of clarithromycin on CYP3A activity was quantified by means of an oral midazolam microdose (30 μg) (Fig. 1).
(§2) CYP3A4 activity was quantified using a microdose of midazolam administered as an oral solution, which was administered directly before administering the FXaI [19, 20]. Clarithromycin was dosed to inhibition steady-state (7-day treatment prior to evaluation of any perpetrator effects and treatment continued until last blood sampling) and administered at a dose of 500 mg b.i.d. to ensure reliable inhibition of hepatic CYP3A4 (mechanism-based inhibition), while maximum CYP3A4 inhibition in the gut wall was expected to occur earlier. Single-dose pharmacokinetics of the FXaI were assessed at baseline and on day 8 (microdosed FXaI cocktail) and day 9 (edoxaban 60 mg) of clarithromycin treatment.
(§3) Venous plasma samples for pharmacokinetic FXaI analyses were collected before and 0.25, 0.5, 0.75, 1, 1.5, 2, 2.5, 3, 3.5, 4, 5, 6, 8, 10, 12, 24 (last sampling after microdoses), and 48 h (last sampling for edoxaban 60 mg) after drug administration. Midazolam pharmacokinetics were assessed using a limited sampling strategy with sampling at 2, 2.5, 3, and 4 h post dose. All samples were processed within 20 min, and plasma was stored at ≤ – 20 °C until analysis. Coagulation effects (international normalized ratio (INR) and activated partial thromboplastin time (aPTT)) were assessed at expected FXaI peak plasma concentrations (3 h post dose) in the accredited central laboratory of the hospital.
(§4) Apixaban, edoxaban, midazolam, and rivaroxaban plasma concentrations were quantified using validated highly sensitive ultra-performance liquid chromatography–tandem mass spectrometry (UPLC-MS/MS) methods with accuracy and precision values of less than or equal to ± 15 % [22, 23]. The corresponding lower limits of quantification were 1 pg/ml for microdosed midazolam, 2.5 pg/ml for all microdosed FXaI, and 1 ng/ml for regular doses of edoxaban.
(§5) Non-compartmental analyses of the FXaI and midazolam pharmacokinetics were performed using Phoenix WinNonlin 8.3 (Certara, Inc., Princeton, NJ, USA). Linear modelling of AUC ratios was done using the R software environment in version 4.0.4 (R Foundation for Statistical Computing, Vienna, Austria). Maximum plasma concentration (Cmax) and the time to reach Cmax (Tmax) were directly obtained from the pharmacokinetic data. The area under the concentration-time curve from 0 to infinity (AUC0-∞) was determined using the log-linear trapezoidal rule and by adding the extrapolated part until infinity. Half-life (t1/2) is calculated as ln(2)/λz , where the elimination rate constant λz was estimated using log-linear regression of the elimination phase. The apparent oral clearance (Cl/F) was calculated as dose/AUC0--∞ . CYP3A4 activity was determined using a limited sampling strategy using the midazolam AUC2-4 as described earlier. […] Exposure changes are described by evaluating the geometric mean ratio (paired t-test on log-transformed values) of AUC0-∞ and Cmax at baseline and under the influence of steady-state clarithromycin (90 % CI). The AUC2-4 of midazolam was evaluated at multiple time points using a repeated-measures analysis of variance after logarithmic transformation.

[2] = cited from earlier work; remark: listed apart in the source
CYP = settings: cited from earlier work
[3] = Pharmacokinetics of a single 60 mg edoxaban dose before and during clarithromycin; settings: for Tmax / Vd: geometric mean; for Vd: Vz
Description: as §1, §2, §3, §4, §5

[4] = test system: coagulation markers (aPTT, INR); assay: Coagulation effects (aPTT, INR) 3 h post dose; format: in vivo, human (healthy volunteers); settings: for INR, mean / aPTT, mean: 180 min after administration
Description: as §3

CYP3A = CYP3A activity by oral midazolam microdose (AUC2-4, limited sampling); format: in vivo, human (healthy volunteers); settings: human, plasma, 30 ug, oral microdose 30 μg
Description: as §1
CYP3A4 activity was quantified using a microdose of midazolam administered as an oral solution, which was administered directly before administering the FXaI [19, 20]. […] Single-dose pharmacokinetics of the FXaI were assessed at baseline and on day 8 (microdosed FXaI cocktail) and day 9 (edoxaban 60 mg) of clarithromycin treatment.
as §3, with “All samples were processed within 20 min, and plasma was stored at ≤ – 20 °C until analysis.” left out, “hospital. […]” for “hospital.”

[5] = Safety: adverse events in the trial; format: in vivo, human (healthy volunteers); settings: while taking clarithromycin 500 mg b.i.d.; 12 participants
[6] = design: method as in PMID 32511684; settings: during clarithromycin compared to azithromycin, patients mainly anticoagulated with FXaI; cited from earlier work
P-gp = test system: P-gp; design: method as in PMID 12848773, PMID 18987624; settings: digoxin given intravenously and orally; cited from earlier work
[7] = human, in vivo, po, geometric mean
[8] = oral microdose cocktail, at clarithromycin steady-state
[9] = oral microdose cocktail, baseline
[10] = regular apixaban dose with clarithromycin, ref 24 (Garonzik et al. 2019)
[11] = oral microdose cocktail, clarithromycin steady state vs baseline
[12] = edoxaban 60 mg, clarithromycin steady state vs baseline
[13] = human, in vivo, 60 mg, edoxaban 60 mg, at clarithromycin steady-state
[14] = human, in vivo, 60 mg, edoxaban 60 mg, baseline
[15] = edoxaban 60 mg with clarithromycin
[16] = regular rivaroxaban dose with clarithromycin, ref 16 (Mueck et al. 2013)

## COc1ccc(-n2nc(C(N)=O)c3c2C(=O)N(c2ccc(N4CCCCC4=O)cc2)CC3)cc1 [Apixaban, apixaban]
[1]
  exposure increase caused by verapamil or diltiazem: approximately 40%
[1]; therapeutic dose of apixaban
  exposure change with ketoconazole: 99%
clinical; human, in vivo, po
  Cl / F, geometric mean: 4.9 L/h
  Vz, geometric mean: 52 L
  t1/2, geometric mean: 7.1 h
clinical; [7]
  Cmax: 0.653 ng/mL
clinical; [8]
  Tmax, geometric mean: 2.23 h
clinical; [9]
  Tmax, geometric mean: 1.9 h
[2]; apixaban
  increase of concentrations (exposure) by clarithromycin: 60%
[2]; [10]
  AUC0-∝ geometric mean ratio: 1.60
  Cmax geometric mean ratio: 1.30
CYP
  CYP contribution to overall clearance: 21%

## CN1CCc2nc(C(=O)N[C@@H]3C[C@@H](C(=O)N(C)C)CC[C@@H]3NC(=O)C(=O)Nc3ccc(Cl)cn3)sc2C1 [Edoxaban, edoxaban]
[1]
  effect of selective inhibition of CYP3A (by voriconazole) on pharmacokinetics: does not affect its pharmacokinetics
[1]; therapeutic dose of edoxaban
  exposure change with ketoconazole: 87%
clinical; at baseline
  GMR of dose-normalized AUC0-∞, microdose vs therapeutic dose: 1.08
clinical; at steady-state of clarithromycin
  GMR of dose-normalized AUC0-∞, microdose vs therapeutic dose: 1.43
clinical; human, in vivo, po, geometric mean, oral microdose cocktail (25 μg apixaban, 50 μg edoxaban, 25 μg rivaroxaban), baseline
  AUC: 1.05 ng·h/mL
clinical; human, in vivo, po, geometric mean, oral microdose cocktail, at steady-state clarithromycin (day 8)
  AUC: 2.13 ng·h/mL
clinical; human, in vivo, po, geometric mean, oral microdose cocktail, at steady-state clarithromycin
  Cmax: 0.341 ng/mL
clinical; human, in vivo, po, geometric mean, oral microdose cocktail, baseline
  Cmax: 0.153 ng/mL
clinical; human, in vivo, po, Tmax, geometric mean, oral microdose cocktail, at clarithromycin steady-state
  Tmax: 1.72 h
clinical; human, in vivo, po, Tmax, geometric mean, oral microdose cocktail, baseline
  Tmax: 1.17 h
clinical; [8]
  Cl / F, geometric mean: 23 L/h
  Vz, geometric mean: 217 L
clinical; [9]
  Cl / F, geometric mean: 48 L/h
  Vz, geometric mean: 399 L
clinical; [11]
  AUC0-∝ geometric mean ratio: 2.03
  Cmax geometric mean ratio: 2.22
[3]; edoxaban 60 mg
  increase of edoxaban exposure by clarithromycin: 53%
[3]; edoxaban 60 mg, at clarithromycin steady-state
  Cl / F, geometric mean: 34 L/h
[3]; edoxaban 60 mg, at steady-state clarithromycin
  Cmax, geometric mean: 258 ng/mL
[3]; edoxaban 60 mg, baseline
  Cl / F, geometric mean: 51 L/h
[3]; [12]
  AUC0-∝ geometric mean ratio: 1.53
  Cmax geometric mean ratio: 1.27
[3]; human, in vivo, 60 mg
  Cmax: 203 ng/mL
[3]; [13]
  Tmax: 1.67 h
  Vd: 361 L
[3]; [14]
  Tmax: 1.27 h
  Vd: 594 L
[3]; human, in vivo, po, 60 mg
  AUC: 1170 ng·h/mL
[4]; edoxaban 60 mg
  INR, change during clarithromycin, GMR: 1.39
[4]; edoxaban 60 mg alone
  INR, mean: 1.23
  aPTT, mean: 33.4
[4]; [15]
  INR, mean: 1.43
  aPTT, mean: 40.2
CYP
  contribution of CYP3A to the overall metabolic clearance: 1%

## Cc1ncc2n1-c1ccc(Cl)cc1C(c1ccccc1F)=NC2 [Midazolam, midazolam]
CYP3A; at clarithromycin steady-state
  AUC: 0.672 ng·h/mL
CYP3A; baseline
  AUC: 0.107 ng·h/mL

## O=C(NC[C@H]1CN(c2ccc(N3CCOCC3=O)cc2)C(=O)O1)c1ccc(Cl)s1 [Rivaroxaban, rivaroxaban]
[1]
  exposure increase caused by verapamil or diltiazem: approximately 40%
[1]; therapeutic dose of rivaroxaban
  exposure change with ketoconazole: 158%
clinical; human, in vivo, po
  Cl / F, geometric mean: 9.0 L/h
  Tmax: 0.917 h
  Vz, geometric mean: 85 L
  t1/2, geometric mean: 6.3 h
clinical; [7]
  Cmax: 0.65 ng/mL
[2]; [16]
  AUC0-∝ geometric mean ratio: 1.54
  Cmax geometric mean ratio: 1.40
[2]; rivaroxaban
  increase of concentrations (exposure) by clarithromycin: 50–100%
[2]; therapeutic doses of rivaroxaban
  magnitude of drug interaction (exposure increase) with clarithromycin: 54%
CYP
  CYP contribution to overall clearance: 32%

## CC[C@H]1OC(=O)[C@H](C)[C@@H](O[C@H]2C[C@@](C)(OC)[C@@H](O)[C@H](C)O2)[C@H](C)[C@@H](O[C@@H]2O[C@H](C)C[C@H](N(C)C)[C@H]2O)[C@](C)(OC)C[C@@H](C)C(=O)[C@H](C)[C@@H](O)[C@]1(C)O [clarithromycin]
[5]
  adverse event dysgeusia, number of participants: 9
[6]
  increase of the risk of hospital admission due to major bleeding events: 71%

## C[C@H]1O[C@@H](O[C@H]2[C@@H](O)C[C@H](O[C@H]3[C@@H](O)C[C@H](O[C@H]4CC[C@@]5(C)[C@H](CC[C@@H]6[C@@H]5C[C@@H](O)[C@]5(C)[C@@H](C7=CC(=O)OC7)CC[C@]65O)C4)O[C@@H]3C)O[C@@H]2C)C[C@H](O)[C@@H]1O [digoxin]
P-gp
  reduction of renal tubular secretion by oral clarithromycin: 15%
